We go through 1 substance from patent US20250221922A1, “ORAL CARE COMPOSITIONS CONTAINING RHAMNOLIPIDS” (Stepan Company, priority 2022, published 2025).

The data set in a line: Flavor Solubilization (mint flavor oils). In kind it is physicochemical. As to conditions: premix at the solubilization ratio. As for the experimental part:
The ability of the rhamnolipid mixture to solubilize an oil-based flavorant, such as a mint oil flavorant, was tested. The rhamnolipid composition tested was Sample 3 used above for Porphyromonas gingivalis.
Functionality was determined through a series of dilutions using the rhamnolipid mixture as a potential solubilizer component for flavor oils in the absence of synthetic or other solubilizers. The rhamnolipid composition was compared with polysorbate 20, which is a synthetic solubilizer and the industry standard for oil solubilization for flavors. Common mint flavors, such as Mint #244456 and Mint #244455 from Belle Aire Creations, were used as the flavor oils.
The rhamnolipid composition was added to each of the flavor oils in increasing amounts in order to determine the solubilizer component to flavor oil ratio at which a clear premix was obtained. Once a clear premix was obtained, that premix was then added to deionized water to ensure that the final solution was crystal clear.

Take polysorbate 20: the “appearance of final solution of the premix in deionized water” value is listed as “crystal clear”.
